Measurements: doi:10.1101/2024.08.19.608619, “Discovery of potent SARS-CoV-2 nsp3 macrodomain inhibitors uncovers lack of translation to cellular antiviral response” (bioRxiv, 2024)
Like-named read-outs stand apart in the source and are kept apart here.

Tests used:
Test in all cases: biochemical
Set-up in all cases: In vitro kinase panel profiling, per cent remaining kinase activity at 10 uM
[1] = target: T1, GSK3β(h) (Homo sapiens, UniProt P49841); settings: atp_concentration=15, read-out: % of control remaining
T1 construct: gene GSK3B
T1 sequence (P49841 whole entry): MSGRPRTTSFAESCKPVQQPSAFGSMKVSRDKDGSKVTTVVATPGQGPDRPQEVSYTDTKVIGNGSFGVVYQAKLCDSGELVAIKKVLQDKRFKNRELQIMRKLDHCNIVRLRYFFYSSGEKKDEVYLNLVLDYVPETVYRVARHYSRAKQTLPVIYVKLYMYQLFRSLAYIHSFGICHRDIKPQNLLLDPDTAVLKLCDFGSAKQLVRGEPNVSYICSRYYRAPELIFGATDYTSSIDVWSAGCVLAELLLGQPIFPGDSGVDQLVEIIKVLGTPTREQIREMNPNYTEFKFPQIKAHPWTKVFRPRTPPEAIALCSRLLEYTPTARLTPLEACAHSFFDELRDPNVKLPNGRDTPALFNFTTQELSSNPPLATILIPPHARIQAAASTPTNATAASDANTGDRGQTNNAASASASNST
Source text: (§1) We derisk potential for off-target activity by profiling the compound in a CEREP panel, a standard secondary pharmacology assessment, as well as a kinase panel to derisk a potential hinge-binding motif in our leads, and a PARP panel to derisk activity against human […]. Reassuringly, the compounds are selective, with the only off-targets being moderate human CHRM2 and KOR receptors activity associated with ASAP-0011198.

[2] = target: Fyn(h) (Homo sapiens, UniProt P06241); settings: atp_concentration=70, read-out: % of control remaining
Fyn(h), sequence (P06241 whole entry): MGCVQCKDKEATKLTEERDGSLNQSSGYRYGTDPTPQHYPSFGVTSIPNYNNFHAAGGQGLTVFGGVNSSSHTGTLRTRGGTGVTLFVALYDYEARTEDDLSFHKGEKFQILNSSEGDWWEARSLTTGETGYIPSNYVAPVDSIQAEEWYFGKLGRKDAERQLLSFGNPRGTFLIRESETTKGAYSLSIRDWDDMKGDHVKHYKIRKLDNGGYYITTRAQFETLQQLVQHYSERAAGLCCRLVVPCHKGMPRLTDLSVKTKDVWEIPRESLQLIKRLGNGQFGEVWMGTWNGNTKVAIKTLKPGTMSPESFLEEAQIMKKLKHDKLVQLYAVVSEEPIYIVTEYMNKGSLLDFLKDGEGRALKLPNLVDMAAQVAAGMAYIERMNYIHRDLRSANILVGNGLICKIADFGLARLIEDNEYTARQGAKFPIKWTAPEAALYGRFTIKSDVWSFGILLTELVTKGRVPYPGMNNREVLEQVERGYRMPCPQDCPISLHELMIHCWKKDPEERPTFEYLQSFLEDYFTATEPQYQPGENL
Source text: as §1

[3] = target: T2, MSK2(h) (Homo sapiens, UniProt O75676); settings: atp_concentration=45, read-out: % of control remaining
T2 construct: gene RPS6KA4
Source text: as §1

[4] = target: T3, PI3 Kinase (p110α/p85α)(h) (Homo sapiens, UniProt P42336); settings: atp_concentration=200, read-out: % of control remaining
T3 construct: gene PIK3CA
T3 sequence (P42336 whole entry): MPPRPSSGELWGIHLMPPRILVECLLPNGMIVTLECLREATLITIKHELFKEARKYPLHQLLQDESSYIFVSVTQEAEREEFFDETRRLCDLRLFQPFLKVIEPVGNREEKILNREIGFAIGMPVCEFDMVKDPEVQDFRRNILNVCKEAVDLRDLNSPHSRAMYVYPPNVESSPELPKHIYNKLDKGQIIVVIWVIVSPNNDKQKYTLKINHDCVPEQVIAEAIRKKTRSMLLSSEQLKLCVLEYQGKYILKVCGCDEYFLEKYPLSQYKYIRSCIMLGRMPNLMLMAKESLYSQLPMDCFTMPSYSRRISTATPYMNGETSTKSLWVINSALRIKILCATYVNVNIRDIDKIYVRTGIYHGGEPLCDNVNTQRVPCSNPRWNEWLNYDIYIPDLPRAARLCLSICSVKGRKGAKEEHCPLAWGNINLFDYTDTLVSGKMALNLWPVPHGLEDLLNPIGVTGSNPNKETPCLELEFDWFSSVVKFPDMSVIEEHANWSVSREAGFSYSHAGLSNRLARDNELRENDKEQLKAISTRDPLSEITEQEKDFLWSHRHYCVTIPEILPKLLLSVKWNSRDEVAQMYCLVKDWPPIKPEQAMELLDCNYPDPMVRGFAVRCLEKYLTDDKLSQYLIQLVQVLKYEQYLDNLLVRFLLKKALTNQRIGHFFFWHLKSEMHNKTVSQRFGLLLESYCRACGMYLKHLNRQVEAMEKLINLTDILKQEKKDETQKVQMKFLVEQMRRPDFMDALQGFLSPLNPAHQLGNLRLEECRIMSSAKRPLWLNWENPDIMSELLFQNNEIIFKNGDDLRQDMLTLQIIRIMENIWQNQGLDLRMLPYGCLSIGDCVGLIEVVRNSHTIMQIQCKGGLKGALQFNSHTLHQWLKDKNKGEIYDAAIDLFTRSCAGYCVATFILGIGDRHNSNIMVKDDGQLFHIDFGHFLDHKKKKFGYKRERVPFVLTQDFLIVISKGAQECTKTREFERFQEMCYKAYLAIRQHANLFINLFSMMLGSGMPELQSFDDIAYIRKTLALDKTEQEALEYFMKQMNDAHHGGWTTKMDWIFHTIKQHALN
T3 sequence (P27986 whole entry partner): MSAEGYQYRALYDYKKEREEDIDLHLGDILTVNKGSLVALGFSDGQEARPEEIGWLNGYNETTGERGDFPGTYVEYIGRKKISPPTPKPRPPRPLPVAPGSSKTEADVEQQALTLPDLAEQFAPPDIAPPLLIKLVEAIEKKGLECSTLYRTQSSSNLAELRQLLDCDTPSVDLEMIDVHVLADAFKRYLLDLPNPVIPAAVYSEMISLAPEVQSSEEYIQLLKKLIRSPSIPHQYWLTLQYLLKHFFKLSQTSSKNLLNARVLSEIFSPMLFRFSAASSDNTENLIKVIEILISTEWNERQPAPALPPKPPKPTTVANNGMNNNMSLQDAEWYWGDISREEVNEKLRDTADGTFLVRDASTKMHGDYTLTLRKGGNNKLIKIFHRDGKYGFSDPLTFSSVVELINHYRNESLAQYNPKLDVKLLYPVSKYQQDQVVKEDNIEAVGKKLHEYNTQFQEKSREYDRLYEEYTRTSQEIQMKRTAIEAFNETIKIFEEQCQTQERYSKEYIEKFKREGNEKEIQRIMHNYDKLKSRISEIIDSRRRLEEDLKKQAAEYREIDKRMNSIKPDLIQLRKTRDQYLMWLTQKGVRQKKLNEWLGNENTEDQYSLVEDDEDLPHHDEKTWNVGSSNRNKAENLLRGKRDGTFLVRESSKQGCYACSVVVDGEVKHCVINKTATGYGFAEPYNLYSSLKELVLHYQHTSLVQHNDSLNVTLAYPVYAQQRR
Source text: as §1

[5] = target: T4, Pim-1(h) (Homo sapiens, UniProt P11309); settings: atp_concentration=90, read-out: % of control remaining
T4 construct: gene PIM1
T4 sequence (P11309 whole entry): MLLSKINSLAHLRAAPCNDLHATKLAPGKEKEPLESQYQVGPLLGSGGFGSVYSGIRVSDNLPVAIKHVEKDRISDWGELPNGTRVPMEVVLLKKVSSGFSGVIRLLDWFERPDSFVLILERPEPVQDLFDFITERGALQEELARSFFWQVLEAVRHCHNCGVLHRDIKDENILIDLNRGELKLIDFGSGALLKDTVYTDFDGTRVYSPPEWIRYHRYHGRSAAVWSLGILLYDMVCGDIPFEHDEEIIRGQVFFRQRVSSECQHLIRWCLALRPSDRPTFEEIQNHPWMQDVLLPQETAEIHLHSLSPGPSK
Source text: as §1

[6] = target: T5, Rse(h) (Homo sapiens, UniProt Q06418); settings: atp_concentration=45, read-out: % of control remaining
T5 construct: gene TYRO3
T5 sequence (Q06418 1-890): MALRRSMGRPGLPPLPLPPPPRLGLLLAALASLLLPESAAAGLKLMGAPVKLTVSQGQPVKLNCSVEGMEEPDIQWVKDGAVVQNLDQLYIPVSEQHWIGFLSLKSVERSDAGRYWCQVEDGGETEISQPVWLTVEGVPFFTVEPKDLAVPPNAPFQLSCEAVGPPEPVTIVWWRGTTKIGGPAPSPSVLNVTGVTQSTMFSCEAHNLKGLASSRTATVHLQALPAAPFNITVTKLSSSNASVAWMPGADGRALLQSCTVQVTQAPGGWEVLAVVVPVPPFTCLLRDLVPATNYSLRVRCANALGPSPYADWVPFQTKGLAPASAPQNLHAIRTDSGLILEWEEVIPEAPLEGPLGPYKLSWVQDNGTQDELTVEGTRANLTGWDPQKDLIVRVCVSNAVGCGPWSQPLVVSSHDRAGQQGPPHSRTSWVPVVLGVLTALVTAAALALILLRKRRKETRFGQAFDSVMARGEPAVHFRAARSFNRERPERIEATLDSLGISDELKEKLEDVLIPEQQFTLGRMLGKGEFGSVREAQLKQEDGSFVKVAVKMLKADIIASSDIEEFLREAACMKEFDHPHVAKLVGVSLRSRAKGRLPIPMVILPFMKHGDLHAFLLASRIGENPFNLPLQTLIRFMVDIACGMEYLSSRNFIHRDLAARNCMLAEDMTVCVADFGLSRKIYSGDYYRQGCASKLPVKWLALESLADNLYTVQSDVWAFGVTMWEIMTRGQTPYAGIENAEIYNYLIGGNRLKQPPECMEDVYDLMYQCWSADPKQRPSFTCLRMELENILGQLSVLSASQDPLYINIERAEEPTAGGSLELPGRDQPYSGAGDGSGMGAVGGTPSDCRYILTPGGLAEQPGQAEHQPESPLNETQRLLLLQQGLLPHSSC
Source text: as §1

[7] = target: T6, PI3 Kinase (p120γ)(h) (Homo sapiens, UniProt P48736); settings: atp_concentration=100, read-out: % of control remaining
T6 construct: gene PIK3CG
Source text: as §1

[8] = target: T7, ROCK-I(h) (Homo sapiens, UniProt Q13464); settings: atp_concentration=70, read-out: % of control remaining
T7 construct: gene ROCK1
T7 sequence (Q13464 whole entry): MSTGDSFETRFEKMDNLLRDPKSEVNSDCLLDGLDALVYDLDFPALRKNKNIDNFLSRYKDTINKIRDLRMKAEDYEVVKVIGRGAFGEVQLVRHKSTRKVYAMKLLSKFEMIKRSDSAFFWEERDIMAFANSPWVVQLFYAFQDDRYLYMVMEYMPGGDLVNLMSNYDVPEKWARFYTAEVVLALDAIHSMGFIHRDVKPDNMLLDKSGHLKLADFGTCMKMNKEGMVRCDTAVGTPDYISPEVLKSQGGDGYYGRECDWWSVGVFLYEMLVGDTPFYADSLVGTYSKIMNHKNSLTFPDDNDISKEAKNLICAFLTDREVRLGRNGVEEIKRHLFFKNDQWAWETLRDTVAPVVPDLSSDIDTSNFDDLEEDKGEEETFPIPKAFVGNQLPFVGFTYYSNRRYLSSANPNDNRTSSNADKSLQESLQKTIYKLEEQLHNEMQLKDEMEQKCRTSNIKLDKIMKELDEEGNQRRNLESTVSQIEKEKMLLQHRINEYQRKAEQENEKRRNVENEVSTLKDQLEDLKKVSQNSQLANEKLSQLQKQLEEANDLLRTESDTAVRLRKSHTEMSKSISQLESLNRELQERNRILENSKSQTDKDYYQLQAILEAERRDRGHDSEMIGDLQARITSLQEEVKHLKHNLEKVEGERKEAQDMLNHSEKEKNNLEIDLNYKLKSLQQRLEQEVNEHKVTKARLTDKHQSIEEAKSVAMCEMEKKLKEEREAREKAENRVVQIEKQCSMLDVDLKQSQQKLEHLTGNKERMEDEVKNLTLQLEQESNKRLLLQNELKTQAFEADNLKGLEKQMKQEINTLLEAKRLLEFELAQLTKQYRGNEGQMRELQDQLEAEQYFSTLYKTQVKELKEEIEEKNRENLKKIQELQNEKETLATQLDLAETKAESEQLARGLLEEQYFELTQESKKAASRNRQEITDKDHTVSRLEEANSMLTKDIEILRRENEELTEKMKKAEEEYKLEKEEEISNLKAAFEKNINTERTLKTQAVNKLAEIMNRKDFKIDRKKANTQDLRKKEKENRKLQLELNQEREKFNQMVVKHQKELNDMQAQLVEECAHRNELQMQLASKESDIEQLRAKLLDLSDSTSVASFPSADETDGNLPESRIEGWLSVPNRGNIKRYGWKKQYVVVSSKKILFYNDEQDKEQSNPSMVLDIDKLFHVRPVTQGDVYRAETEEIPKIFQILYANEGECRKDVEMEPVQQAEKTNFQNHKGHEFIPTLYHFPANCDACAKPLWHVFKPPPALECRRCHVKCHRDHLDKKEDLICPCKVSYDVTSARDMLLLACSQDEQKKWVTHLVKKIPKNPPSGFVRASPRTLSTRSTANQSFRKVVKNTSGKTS
Source text: as §1

[9] = target: T8, TAK1(h) (Homo sapiens, UniProt O43318); settings: atp_concentration=45, read-out: % of control remaining
T8 construct: gene MAP3K7
T8 sequence (O43318 1-606): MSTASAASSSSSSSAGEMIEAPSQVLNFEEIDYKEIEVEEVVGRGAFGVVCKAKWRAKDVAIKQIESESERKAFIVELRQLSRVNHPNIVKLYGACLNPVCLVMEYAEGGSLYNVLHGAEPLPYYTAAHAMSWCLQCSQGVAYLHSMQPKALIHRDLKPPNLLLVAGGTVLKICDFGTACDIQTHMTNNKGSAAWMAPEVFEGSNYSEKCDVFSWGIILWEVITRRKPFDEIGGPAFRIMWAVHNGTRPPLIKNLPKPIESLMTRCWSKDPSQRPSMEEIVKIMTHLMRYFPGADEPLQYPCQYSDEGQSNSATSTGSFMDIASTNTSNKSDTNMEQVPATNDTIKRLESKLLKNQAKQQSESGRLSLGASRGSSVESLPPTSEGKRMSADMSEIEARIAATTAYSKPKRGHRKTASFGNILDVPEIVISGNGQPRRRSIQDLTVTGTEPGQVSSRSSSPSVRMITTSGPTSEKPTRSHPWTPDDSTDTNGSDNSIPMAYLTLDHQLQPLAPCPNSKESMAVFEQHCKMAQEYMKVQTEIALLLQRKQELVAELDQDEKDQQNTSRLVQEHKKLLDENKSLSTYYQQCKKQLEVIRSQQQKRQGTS
Source text: as §1

[10] = target: T9, MEK1(h) (Homo sapiens, UniProt Q02750); settings: atp_concentration=10, read-out: % of control remaining
T9 construct: gene MAP2K1
T9 sequence (Q02750 whole entry): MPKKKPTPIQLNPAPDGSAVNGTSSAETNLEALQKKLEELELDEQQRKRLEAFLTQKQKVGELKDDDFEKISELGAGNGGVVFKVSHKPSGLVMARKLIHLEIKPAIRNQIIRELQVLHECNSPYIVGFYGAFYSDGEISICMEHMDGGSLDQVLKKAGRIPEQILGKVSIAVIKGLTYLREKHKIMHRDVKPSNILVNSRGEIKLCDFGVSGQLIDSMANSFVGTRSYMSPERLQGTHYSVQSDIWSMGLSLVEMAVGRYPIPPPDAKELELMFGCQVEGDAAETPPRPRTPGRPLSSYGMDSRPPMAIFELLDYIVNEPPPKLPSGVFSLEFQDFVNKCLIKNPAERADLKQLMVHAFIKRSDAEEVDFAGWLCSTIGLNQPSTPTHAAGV
Source text: as §1

[11] = target: T10, p70S6K(h) (Homo sapiens, UniProt P23443); settings: atp_concentration=15, read-out: % of control remaining
T10 construct: gene RPS6KB1
Source text: as §1

With `CC(C)C(Nc1ncnc2[nH]ccc12)c1ccc2c(c1)S(=O)(=O)CCC2` (stereo not drawn) [ASAP-0008327] the remaining activity at 10 µM ([1]; batch_name=ASAP-0008327-001) was 107%, the remaining activity at 10 µM ([2]; batch_name=ASAP-0008327-001) was 127% and the remaining activity at 10 µM ([3]; batch_name=ASAP-0008327-001) was 99%. For the same compound, the remaining activity at 10 µM ([4]; batch_name=ASAP-0008327-001) was 104%, the remaining activity at 10 µM ([5]; batch_name=ASAP-0008327-001) was 80% and the remaining activity at 10 µM ([6]; batch_name=ASAP-0008327-001) was 115%. It also gave a remaining activity at 10 µM ([7]; batch_name=ASAP-0008327-001) of 103%, a remaining activity at 10 µM ([8]; batch_name=ASAP-0008327-001) of 110% and a remaining activity at 10 µM ([9]; batch_name=ASAP-0008327-001) of 83%. For the same compound, the remaining activity at 10 µM ([10]; batch_name=ASAP-0008327-001) was 97% and the remaining activity at 10 µM ([11]; batch_name=ASAP-0008327-001) was 98%.

`COc1ccc([C@@H](Cc2nnn[nH]2)NC(=O)c2ncnc3[nH]ccc23)cc1` [ASAP-0008340] showed a remaining activity at 10 µM ([1]; batch_name=ASAP-0008340-001) of 105%, a remaining activity at 10 µM ([2]; batch_name=ASAP-0008340-001) of 105% and a remaining activity at 10 µM ([3]; batch_name=ASAP-0008340-001) of 92%. It also gave a remaining activity at 10 µM ([4]; batch_name=ASAP-0008340-001) of 101%, a remaining activity at 10 µM ([5]; batch_name=ASAP-0008340-001) of 91% and a remaining activity at 10 µM ([6]; batch_name=ASAP-0008340-001) of 88%. The remaining activity at 10 µM ([7]; batch_name=ASAP-0008340-001) was 89%, the remaining activity at 10 µM ([8]; batch_name=ASAP-0008340-001) was 93% and the remaining activity at 10 µM ([9]; batch_name=ASAP-0008340-001) was 88%. The remaining activity at 10 µM ([10]; batch_name=ASAP-0008340-001) was 92% and the remaining activity at 10 µM ([11]; batch_name=ASAP-0008340-001) was 81%.

Compound `CC(C)[C@@H](Nc1ncnc2[nH]c(-c3cnn(C)c3C#N)cc12)c1ccc2c(n1)OCCO2` [ASAP-0008418] has a remaining activity at 10 µM ([1]; batch_name=ASAP-0008418-001) of 85%, a remaining activity at 10 µM ([2]; batch_name=ASAP-0008418-001) of 56% and a remaining activity at 10 µM ([3]; batch_name=ASAP-0008418-001) of 103%. The remaining activity at 10 µM ([4]; batch_name=ASAP-0008418-001) was 49%, the remaining activity at 10 µM ([5]; batch_name=ASAP-0008418-001) was 79% and the remaining activity at 10 µM ([6]; batch_name=ASAP-0008418-001) was 116%. For the same compound, the remaining activity at 10 µM ([7]; batch_name=ASAP-0008418-001) was 63%, the remaining activity at 10 µM ([8]; batch_name=ASAP-0008418-001) was 93% and the remaining activity at 10 µM ([9]; batch_name=ASAP-0008418-001) was 103%. The remaining activity at 10 µM ([10]; batch_name=ASAP-0008418-001) was 99% and the remaining activity at 10 µM ([11]; batch_name=ASAP-0008418-001) was 82%.

`CC(C)[C@H](Nc1ncnc2[nH]ccc12)c1ccc2c(c1)S(=O)(=O)CCC2` [ASAP-0008674] was tested, and the remaining activity at 10 µM ([1]; batch_name=ASAP-0008674-002) was 94%, the remaining activity at 10 µM ([2]; batch_name=ASAP-0008674-002) was 96% and the remaining activity at 10 µM ([3]; batch_name=ASAP-0008674-002) was 92%. It also gave a remaining activity at 10 µM ([4]; batch_name=ASAP-0008674-002) of 94%, a remaining activity at 10 µM ([5]; batch_name=ASAP-0008674-002) of 91% and a remaining activity at 10 µM ([6]; batch_name=ASAP-0008674-002) of 86%. It also gave a remaining activity at 10 µM ([7]; batch_name=ASAP-0008674-002) of 98%, a remaining activity at 10 µM ([8]; batch_name=ASAP-0008674-002) of 115% and a remaining activity at 10 µM ([9]; batch_name=ASAP-0008674-002) of 90%. The remaining activity at 10 µM ([10]; batch_name=ASAP-0008674-002) was 94% and the remaining activity at 10 µM ([11]; batch_name=ASAP-0008674-002) was 103%.

In the case of `CC(C)[C@H](Nc1ncnc2[nH]c(-c3cnn(C)c3C#N)cc12)c1ccc2c(n1)OCCO2` [ASAP-0010715], the remaining activity at 10 µM ([1]; batch_name=ASAP-0010715-002) is reported as 98%, the remaining activity at 10 µM ([2]; batch_name=ASAP-0010715-002) is reported as 80% and the remaining activity at 10 µM ([3]; batch_name=ASAP-0010715-002) is reported as 114%. For the same compound, the remaining activity at 10 µM ([4]; batch_name=ASAP-0010715-002) was 70%, the remaining activity at 10 µM ([5]; batch_name=ASAP-0010715-002) was 98% and the remaining activity at 10 µM ([6]; batch_name=ASAP-0010715-002) was 105%. It also gave a remaining activity at 10 µM ([7]; batch_name=ASAP-0010715-002) of 80%, a remaining activity at 10 µM ([8]; batch_name=ASAP-0010715-002) of 115% and a remaining activity at 10 µM ([9]; batch_name=ASAP-0010715-002) of 94%. The remaining activity at 10 µM ([10]; batch_name=ASAP-0010715-002) was 97% and the remaining activity at 10 µM ([11]; batch_name=ASAP-0010715-002) was 125%.

`CC(C)[C@@H](Nc1ncnc2[nH]c(-c3cnn(C)c3C#N)cc12)c1ccc2c(n1)OCCO2` [ASAP-0010716] gave a remaining activity at 10 µM ([1]; batch_name=ASAP-0010716-002) of 101%, a remaining activity at 10 µM ([2]; batch_name=ASAP-0010716-002) of 55% and a remaining activity at 10 µM ([3]; batch_name=ASAP-0010716-002) of 122%. The remaining activity at 10 µM ([4]; batch_name=ASAP-0010716-002) was 55%, the remaining activity at 10 µM ([5]; batch_name=ASAP-0010716-002) was 99% and the remaining activity at 10 µM ([6]; batch_name=ASAP-0010716-002) was 107%. The remaining activity at 10 µM ([7]; batch_name=ASAP-0010716-002) was 78%, the remaining activity at 10 µM ([8]; batch_name=ASAP-0010716-002) was 107% and the remaining activity at 10 µM ([9]; batch_name=ASAP-0010716-002) was 100%. It also gave a remaining activity at 10 µM ([10]; batch_name=ASAP-0010716-002) of 103% and a remaining activity at 10 µM ([11]; batch_name=ASAP-0010716-002) of 106%.
